In patent US5045546A, “8-azabicyclo[3.2.1]octylalkylthiazolidines” (Hoechst-Roussel Pharmaceuticals Inc., priority 1990, dated 1991):
Like-named read-outs stand apart in the source and are kept apart here.

How the values were obtained:
[1] = test system: apomorphine induced stereotypy; test: inhibition of apomorphine stereotypy assay (potential for extrapyramidal side effects); type: in vivo, male Wistar rats; conditions: rats, drug one hour prior to scoring, apomorphine 1.5 mg/kg s.c.
Experimental: Potential for undersirable extrapyramidal side effect activity is determined in the inhibition of apomorphine stereotypy assay by a method similar to those described by N. E. Anden, et al., J. Pharma. Pharmacol., 19, 627, (1967), and A. M. Ernst, et al., Psychopharmacologia (Berl.), 10, 316 (1967).
In this assay, groups of male Wistar rats (125-200 grams) are used and food and water are available ad libitum. Drugs are prepared using distilled water and, if insoluble, a suitable surfactant is added. The route of administration may be varied and the dosage volume is 10 ml/kg. For a primary screen, a group size of six is used. Drug is administered one hour prior to scoring and the animals are placed in individual clear plastic cages (24×14×13 cm). The control group receives vehicle. Apomorphine hydrochloride solution is prepared at a concentration of 15 mg/10 ml in a 0.03% ascorbic acid stock solution (30 mg of ascorbic acid in 100 ml of 1% saline) to increase the stability of the apomorphine hydrochloride while in solution. Apomorphine hydrochloride solution is administered at a dose of 1.5 mg/kg subcutaneous (s.c.) with a dosage volume of 1 ml/kg. Fifty minutes after drug dosing, stereotypic behavior is noted. Stereotypic activity is defined as sniffing, licking or chewing behavior that occurs in a repetitive manner and is rated as follows: Constant sniffing, licking or chewing without interruption; the animal is considered protected if this behavior is interrupted.
The percent effectiveness of a drug is determined by the number of animals protected in each group. Antipsychotics displaying little effect in this assay would be expected to show a low propensity to cause undersirable extrapyramidal side effects and/or tardive dyskinesias in mammals (N. C. Moore and S. Gershon, Clinical Neuropharmacology, 12, 167, (1989).
A dose-response is run in the same manner as a primary screen except that a group size of 10 is used and the animals are dosed in a randomized manner. One group receives vehicle. ED50 for stereotypy are calculated by means of probit analysis.
Inhibition of apomorphine induced stereotypy of respresentative 8-azabicyclo[3.2.1]octylalkylthiazolidinones of the present invention and two standards is given in Table II.

[2] = test system: apomorphine-induced climbing; test: inhibition of apomorphine-induced climbing in mice (climbing mice assay, antipsychotic activity); type: in vivo, CK-1 male mice; conditions: Mus musculus, ip, 0.5 h, read-out: Antipsychotic Activity ED50
Experimental: The 8-azabicyclo[3.2.1]octylalkylthiazolidnones of the present invention are useful for treating psychoses by virtue of their ability to block apomorphine-induced climbing in mammals.
Antipsychotic activity is determined in the climbing mice assay by a method similar to those described by P. Protais et al., Psychopharmacol., 50,1 (1976) and B. Costall, Eur. J. Pharmacol., 50, 39 (1978).
The subject CK-1 male mice (23-27 grams) are group-housed under standard laboratory conditions. The mice are individually placed in wire mesh stick cages (4"×4"×10") and are allowed one hour for adaptation and exploration of the new environment. Then apomorphine is injected subcutaneously at 1.5 mg/kg, a dose causing climbing in all subjects for 30 minutes. Compounds to be tested for antipsychotic activity are injected intraperitoneally 30 minutes prior to the apomorphine challenge at a screening dose of 10 mg/kg.
For evaluation of climbing, 3 readings are taken at 10, 20 and 30 minutes after apomorphine administration according to the following scale:
4 paws on bottom (no climbing)
2 paws on the wall (rearing)
4 paws on the wall (full climb)
Mice consistently climbing before the injection of apomorphine will be discarded.
With full-developed apomorphine climbing, the animals are hanging onto the cage walls, rather motionless, over longer periods of time. By contrast, climbs due to mere motor stimulation usually only last a few seconds.
The climbing scores are individually totaled (maximal score; 6 per mouse over 3 readings) and the total score of the control group (vehicle intraperitioneally-apomorphine subcutaneously) is set to 100%. ED50 values with 95% confidence limits are calculated by a Linear Regression Analysis. Antipsychotic activity expressed as the ED50 value of representative 8-azabicyclo[3.2.1]octylalkylthiazolidinones as well as two standard antipsychotics are presented in Table I.

CC1(C)SCN(CCCCN2C3CCC2CC(OC(c2ccccc2)c2ccccc2)C3)C1=O.Cl (centres unmarked) [3-[4-[3-(diphenylmethoxy)-8-azabicyclo[3.2.1]octan-8-yl]-butyl]-5,5-dimethyl-4-thiazolidinone hydrochloride]
% Inhibition of apomorphine induced stereotypy ([1]; dose 40 mg/kg body wt.): 17% | ED50 [2]: 7.73 mg/kg

CC1SCN(CCCCN2C3CCC2CC(OC(c2ccccc2)c2ccccc2)C3)C1=O.Cl (centres unmarked) [3-[4-[3-(diphenylmethoxy)-8-azabicyclo[3.2.1]octan-8-yl]-butyl]-5-methyl-4-thiazolidinone hydrochloride]
% Inhibition of apomorphine induced stereotypy ([1]; dose 20 mg/kg body wt.): 0% | ED50 [2]: 12.1 mg/kg

O=C(CCCN1CCC(O)(c2ccc(Cl)cc2)CC1)c1ccc(F)cc1 [haloperidol]
% Inhibition of apomorphine induced stereotypy ([1]; dose 0.2 mg/kg body wt.): 50% | ED50 [2]: 0.16 mg/kg

CSc1ccc2c(c1)N(CCC1CCCCN1C)c1ccccc1S2 (centres unmarked) [thioridazine]
% Inhibition of apomorphine induced stereotypy ([1]; dose 16 mg/kg body wt.): 50% | ED50 ([2]; climbing mice assay, compound intraperitoneal 30 minutes prior to apomorphine 1.5 mg/kg s.c., Linear Regression Analysis): 4.1 mg/kg
